Laboratory results as given in patent US20260132125A1, “PESTICIDALLY ACTIVE FUSED BICYCLIC HETEROAROMATIC COMPOUNDS” (priority 2022, published 2026).

Columns and labels:
Assay type in all cases: in vivo
Myzus persicae [1] = experiment: Example B4: activity against Myzus persicae (green peach aphid), intrinsic activity; conditions: 120 h, test rate 12 ppm, 5 days after infestation
Method in brief: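 Mortality was read 5 days after infestation. Aphids on pea seedlings fed through a stretched Parafilm membrane on inverted 24-well plates containing sucrose solution mixed with test compound, which was diluted from 10′000 ppm DMSO stock.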

Euschistus heros = experiment: Example B3: activity against Euschistus heros (neotropical brown stink bug), soybean leaves; conditions: for percent effect (mortality or growth inhibition) at 200 ppm: 120 h, N2 nymphs, 5 days after infestation, read-out: effect in at least one of the two categories (mortality or growth inhibition)
Experimental: Soybean leaves on agar in 24-well microtiter plates were sprayed with aqueous test solutions prepared from 10′000 ppm DMSO stock solutions. After drying the leaves were infested with N2 nymphs. The samples were assessed for mortality and growth inhibition in comparison to untreated samples 5 days after infestation. The following compounds gave an effect of at least 80% in at least one of the two categories (mortality or growth inhibition) at an application rate of 200 ppm: […]

[2] = tested on: Carpocapsa (Cydia) pomonella; experiment: Example B10: Carpocapsa (Cydia) pomonella (codling moth), larvicide, feeding/contact, diet cubes; conditions: 336 h, L1 larvae, 14 days after infestation, read-out: effect in at least one of the two categories (mortality or growth inhibition)
Experimental: Diet cubes coated with paraffin were sprayed with diluted test solutions in an application chamber. After drying off the treated cubes (10 replicates) were infested with 1 L1 larvae. Samples were incubated at 26-27° C. and checked 14 days after infestation for mortality and growth inhibition. The following compounds gave an effect of at least 80% in at least one of the two categories (mortality or growth inhibition) at an application rate of 50 ppm: […]

Chilo suppressalis = experiment: Example B1: activity against Chilo suppressalis (striped rice stemborer), artificial diet; conditions: 144 h, 200 ppm, L2 larvae, 6 days after infestation, read-out: control (at least one of mortality, anti-feedant effect, growth inhibition)
Method in brief: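 First, artificial diet was treated with aqueous solutions prepared from 10'000 ppm DMSO stocks; second, after drying, L2 larvae (6-8/well) were added; third, effects were assessed at 6 days against untreated controls, counting control when any of three categories was higher.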

Spodoptera littoralis = experiment: Example B6: activity against Spodoptera littoralis (Egyptian cotton leaf worm), cotton leaf discs; conditions: foliar, 72 h, 200 ppm, L1 larvae, 3 days after infestation, read-out: control (at least one of mortality, anti-feedant effect, growth inhibition)
Method in brief: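 Spray application onto agar-supported cotton leaf discs used aqueous solutions derived from 10′000 ppm DMSO stocks. Once dry, discs were infested with five L1 larvae and evaluated after 3 days for mortality, anti-feeding and growth inhibition relative to untreated controls.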

Diabrotica balteata = experiment: Example B2: activity against Diabrotica balteata (corn root worm), maize sprouts; conditions: 96 h, L2 larvae, 4 days after infestation, read-out: effect in at least one of the two categories (mortality or growth inhibition)
Method in brief: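 At 200 ppm, test solutions diluted in water from 10′000 ppm DMSO stocks were spray-applied to maize sprouts set on agar. Once dry, each well received 6–10 second-instar larvae. Four days later, mortality and growth inhibition were compared with untreated controls.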

Pseudoplusia includens = experiment: Example B9: Pseudoplusia includens (soybean looper), larvicide, feeding/contact, soybean plants; conditions: Chrysodeixis includens; for percent effect (mortality or growth inhibition) at 50 ppm: 120 h, L2 larvae, 5 days after infestation, read-out: effect in at least one of the two categories (mortality or growth inhibition)
Method in brief: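 Soybean plants sprayed, cut and held in dishes on wet filter paper; infested 1 d after application with 5 L2 larvae. Mortality and growth inhibition assessed 5 days after infestation; tested at 50 ppm.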

Plutella xylostella [3] = experiment: Example B5: activity against Plutella xylostella (diamond back moth), artificial diet, eggs; conditions: 192 h, 8 days after infestation, read-out: effect in at least one of the two categories (mortality or growth inhibition)
Method in brief: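 Scoring at 8 days post-infestation compared mortality and growth inhibition with untreated controls, on diet treated at 200 ppm with water-diluted DMSO stock solutions. Diamondback moth eggs were placed on the dried diet in 24-well plates.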

Myzus persicae [4] = experiment: Example B7a: Myzus persicae feeding/contact activity, sunflower leaf discs; conditions: foliar, 144 h, mixed ages, 6 days after infestation
Experimental: Sunflower leaf discs were placed onto agar in a 24-well microtiter plate and sprayed with aqueous test solutions prepared from 10′000 ppm DMSO stock solutions. After drying, the leaf discs were infested with an aphid population of mixed ages. The samples were assessed for mortality 6 days after infestation.

Plutella xylostella [5] = experiment: B14b: Plutella xylostella (diamond back moth), larvicide L3, feeding/contact, Chinese cabbage
Description: Activity of compounds P5, P17 and P21 according to the preparatory examples and of a compound from WO 21/083936 against Spodoptera littoralis (Example B6 above), Chilo suppressalis (Example B1 above), Diabrotica balteata (Example B14a below), Plutella xylostella (Example B14b below) and Pseudoplusia includens (Example B9 above) is summarized in Table B14. B14a: Diabrotica balteata (Corn root worm). Larvicide, feeding/contact 3 Corn seedlings were placed on wetted filter paper in plastic cups, and 3 ml of diluted test solutions were pipetted onto them. The cups were infested with 10 L2 larvae and checked for mortality and growth regulation 5 days after treatment. B14b: Plutella xylostella (Diamond back moth). Larvicide L3, feeding/contact Chinese cabbage plants were sprayed with diluted test solutions in an application chamber. Cut off leaves were placed into petri dishes with wetted filter paper and infested 1 day after application with 10 L3 larvae. Samples were assessed 4 days after infestation for mortality and growth regulation.

Tetranychus urticae = experiment: Example B8: activity against Tetranychus urticae (two-spotted spider mite), bean leaf discs; conditions: foliar, 192 h, mixed population (mobile stages), 8 days after infestation
Experimental: Bean leaf discs on agar in 24-well microtiter plates were sprayed with aqueous test solutions prepared from 10′000 ppm DMSO stock solutions. After drying the leaf discs were infested with a mite population of mixed ages. The samples were assessed for mortality on mixed population (mobile stages) 8 days after infestation.

SMILES | mortality at 12 ppm (Myzus persicae [1]) | percent effect (mortality or growth inhibition) at 200 ppm (Euschistus heros) | percent effect (mortality or growth inhibition) at 50 ppm [2] | percent control (mortality, anti-feedant effect or growth inhibition) at 200 ppm (Chilo suppressalis) | percent control (mortality, anti-feedant effect or growth inhibition) at 200 ppm (Spodoptera littoralis) | percent effect (mortality or growth inhibition) at 200 ppm (Diabrotica balteata) | percent effect (mortality or growth inhibition) at 50 ppm (Pseudoplusia includens) | percent effect (mortality or growth inhibition) at 200 ppm (Plutella xylostella [3]) | mortality at 200 ppm (Myzus persicae [4]) | mortality at 3 ppm (Plutella xylostella [5]) | mortality at 200 ppm (Euschistus heros) | mortality at 3 ppm (Pseudoplusia includens; Pseudoplusia includens) | mortality at 200 ppm (Tetranychus urticae) | mortality at 0.8 ppm (Plutella xylostella [5]; 0.8 ppm) | mortality at 0.8 ppm (Pseudoplusia includens; Pseudoplusia includens, 0.8 ppm)
C[C@H](Nc1ncnc2c(C(F)(F)F)cc(I)cc12)c1ncnn1-c1cc(C(N)=O)ncn1 [Compound P1, 6-[5-[(1S)-1-[[6-iodo-8-(trifluoromethyl)quinazolin-4-yl]amino]ethyl]-1,2,4-triazol-1-yl]pyrimidine-4-carboxamide] | ≥ 80% | ≥ 80% | ≥ 80% | ≥ 80% | ≥ 80% | ≥ 80% | ≥ 80% | ≥ 80% |  |  |  |  |  |  | 
C[C@H](Nc1ncnc2c(Cl)cc(I)cc12)c1ncnn1-c1cc(C(N)=O)ncn1 [Compound P2, 6-[5-[(1S)-1-[(8-chloro-6-iodo-quinazolin-4-yl)amino]ethyl]-1,2,4-triazol-1-yl]pyrimidine-4-carboxamide] | ≥ 80% |  | ≥ 80% | ≥ 80% | ≥ 80% | ≥ 80% | ≥ 80% | ≥ 80% | ≥ 80% |  |  |  |  |  | 
CNC(=O)c1cc(-n2ncnc2[C@H](C)Nc2ncnc3c(C(F)(F)F)cc(Cl)cc23)ncn1 [Compound P3, 6-[5-[(1S)-1-[[6-chloro-8-(trifluoromethyl)quinazolin-4-yl]amino]ethyl]-1,2,4-triazol-1-yl]-N-methyl-pyrimidine-4-carboxamide] | ≥ 80% | ≥ 80% | ≥ 80% | ≥ 80% | ≥ 80% | ≥ 80% | ≥ 80% | ≥ 80% |  |  |  |  |  |  | 
CNC(=O)c1cc(-n2ncnc2[C@H](C)N(C)c2ncnc3c(C(F)(F)F)cc(Cl)cc23)ncn1 [Compound P9, 6-[5-[(1S)-1-[[6-chloro-8-(trifluoromethyl)quinazolin-4-yl]-methyl-amino]ethyl]-1,2,4-triazol-1-yl]-N-methyl-pyrimidine-4-carboxamide] | ≥ 80% | ≥ 80% | ≥ 80% | ≥ 80% | ≥ 80% | ≥ 80% | ≥ 80% | ≥ 80% | ≥ 80% |  |  |  |  |  | 
C[C@H](Nc1ncnc2c(Br)cc(Br)cc12)c1ncnn1-c1cc(C(N)=O)ncn1 [Compound P10, 6-[5-[(1S)-1-[(6,8-dibromoquinazolin-4-yl)amino]ethyl]-1,2,4-triazol-1-yl]pyrimidine-4-carboxamide] | ≥ 80% |  | ≥ 80% | ≥ 80% | ≥ 80% | ≥ 80% | ≥ 80% | ≥ 80% |  | 100% | 0% | 80% |  |  | 
CNC(=O)c1cc(-n2ncnc2[C@H](C)Nc2ncnc3c(I)cc(Cl)cc23)ncn1 [Compound P14, 6-[5-[(1S)-1-[(6-chloro-8-iodo-quinazolin-4-yl)amino]ethyl]-1,2,4-triazol-1-yl]-N-methyl-pyrimidine-4-carboxamide] | ≥ 80% |  |  | ≥ 80% | ≥ 80% | ≥ 80% | ≥ 80% | ≥ 80% | ≥ 80% |  |  |  |  |  | 
C[C@H](Nc1ncnc2c(I)cc(Cl)cc12)c1ncnn1-c1ncc(C(N)=O)s1 [Compound P29, 2-[5-[(1S)-1-[(6-chloro-8-iodo-quinazolin-4-yl)amino]ethyl]-1,2,4-triazol-1-yl]thiazole-5-carboxamide] | ≥ 80% |  |  | ≥ 80% | ≥ 80% | ≥ 80% |  | ≥ 80% | ≥ 80% |  |  |  |  |  | 
C[C@@H](c1ncnn1-c1cc(C(=O)NCCC#N)ncn1)N(C)c1ncnc2c(C(F)(F)F)cc(Cl)cc12 [Compound P53, 6-[5-[(1S)-1-[[6-chloro-8-(trifluoromethyl)quinazolin-4-yl]-methyl-amino]ethyl]-1,2,4-triazol-1-yl]-N-(2-cyanoethyl)pyrimidine-4-carboxamide] | ≥ 80% |  | ≥ 80% | ≥ 80% | ≥ 80% | ≥ 80% | ≥ 80% | ≥ 80% |  |  |  |  |  |  | 
C[C@H](Nc1ncnc2c(C(F)(F)F)cc(Cl)cc12)c1ncnn1-c1cnc(C(=O)NCC#N)cn1 [Compound P71] | ≥ 80% |  |  | ≥ 80% | ≥ 80% | ≥ 80% |  | ≥ 80% |  |  |  |  | ≥ 80% |  | 
C[C@H](Nc1ncnc2c(C(F)(F)F)cc(Cl)cc12)c1ncnn1-c1ncccn1 [WO 21/083936 P.24, reference compound] |  |  |  |  |  |  |  |  |  |  | 0% |  |  | 5% | 0%
CC(Nc1ncnc2c(Br)cc(Br)cc12)c1ncnn1-c1ncccn1 (stereo not drawn) [WO 21/083936 P.29, reference compound] |  |  |  |  |  |  |  |  |  | 60% | 0% | 30% |  |  | 
